Where a name gives a salt, the structure may show the parent alone.
What was measured:
Nrf2 [1] = assay: UVB-induced Nrf2 degradation in HPKs (Western blot); format: cell-based, human; conditions: harvested after 1 h, FIG. 7D
Text: Next, the inventors investigated the activity of Nrf2 upon activation of the NLRP3 inflammasome, since inflammasome activation is ROS-dependent. […] This is surprising, since UVB irradiation is a strong inducer of ROS production and it can be anticipated that the cells would benefit from Nrf2 activation. UVB-induced secretion by HPKs requires expression of NLRP1 and NLRP3 [21]. Both nigericin and MSU crystals are considered as “true” NLRP3 activators, but HPKs cannot phagocytose MSU crystals. Therefore, the inventors treated HPKs with nigericin only and THP-1 cells with either of these NLRP3 activators. […] Therefore, NLRP3 inflammasome activation most likely induces Nrf2 protein degradation. […] However, inflammasome activation-induced Nrf2 degradation was blocked upon ablation of ASC or NLRP3 expression (FIG. 4G) and upon treatment of cells with the ROS blocker PDTC or the Ca2+ chelator BAPTA-AM (Supplementary FIG. 2D). […] However, inflammasome function was not impaired, as reflected by normal processing of pro-IL-18 (FIG. 4H). Although Keap1 expression is partially dispensable for Nrf2 degradation by inflammasome activation, the transcription factor is directed to the proteasome under these conditions, since Nrf2 degradation was inhibited by the proteasome inhibitor MG132 (FIG. 4I and FIG. 7D).
(§1) FIG. 7: (A-C) HPKs were transfected with siRNAs for 3 d as indicated. Scrambled (scr) siRNA and siRNA targeting the unrelated vascular endothelial growth factor (VEGF) served as controls. Western blots of (A) total lysates or (B) nuclear and cytoplasmic lysates and (C) qRT-PCR for expression of target gene expression. (D) HPKs were treated with MG132 (1 μM), PDTC (500 μM) or BAPTA-AM (12.5 μM) for 10 min and harvested (before UV) or irradiated with UVB and harvested after 1 h. Western blots showing expression of Nrf2. (E) Differentiated and primed THP-1 cells were pretreated with cycloheximide (CHX, 30 μg/ml) for 1 h before priming cells with upLPS overnight. Western blots show expression of the indicated proteins. […] Statistics: (C) Mann-Whitney test, related to scr control. *P≤0.05

Nrf2 [2] = assay: Nrf2 stabilisation and nuclear accumulation in human primary keratinocytes (Western blot); format: cell-based; conditions: HPKs, FIG. 6E,F; for expression of the other Nrf2 complex proteins Keap1, Cul3, and Rbx1: 1 h; for stabilisation and nuclear accumulation of Nrf2 protein: harvested after 1 h
Protocol: (§2) Human primary keratinocytes (HPKs) constitutively express pro-IL-1β and inflammasome proteins.
(§3) FIG. 6: Bone marrow (BM) cells were isolated from Nrf2-deficient mice and wt litterfnates and differentiated into dendritic cells (DCs). (A, B) After priming with upLPS overnight, BMDCs were treated with the NLRP3 inflammasome activators nigericin (20 μM), zymosan (20 μg/ml), MSU (150 μg/ml), ATP (5 mM) or transfected with poly(dA:dT) (1 μg/ml) for activation of the AIM2 inflammasome. After 6 h, supernatants were analysed for secretion of IL-1β by (A) ELISA or (B) Western blot. Mock-treated but primed BMDCs were analysed for expression of inflammasome proteins and pro-IL-1β at the (C) mRNA level by qRT-PCR or at the (D) protein level by Western blot. (B, D) Duplicates from two individual mice per genotype are shown (biological replicates). (E-G) HPKs were treated with the Nrf2 activators SFN (10 μM), tBHQ (10 μM), DMF (50 μM) and 15d-PGJ2 (10 μM). After 1 h, the cells were harvested and analysed for expression of the indicated proteins using total cell lysates (E) or cytoplasmic and nuclear lysates (F). Western blots for the nuclear protein lamin NC and the cytoplasmic protein α-tubulin served as controls. Specific bands are marked with an asterisk. (G) Total RNA was isolated after 8 h and qRT-PCR was performed for quantification of expression of the Nrf2 target genes glutamate-cysteine ligase, catalytic subunit (GCLC), glutamate-cysteine ligase, modifier subunit (GCLM), and NAD(P)H dehydrogenase, quinone 1 (N001). (A-G) Representative experiments performed at least three times are shown. […] Mann-Whitney test was performed. […] Mann-Whitney test was performed. *P≤0.05

[3] = tested on: Nrf2 target genes (GCLC, GCLM, NAD(P)H dehydrogenase, quinone 1); assay: Nrf2 target gene expression in HPKs (qRT-PCR); format: cell-based, human; conditions: RNA after 8 h, FIG. 6G
Protocol: as §2
qRT-PCR was performed with the LightCycler 480 SYBR Green Master or the FastStart Universal SYBR Green Master (both Roche, Rotkreuz, Switzerland) using total cellular RNA. Specific primer pairs (Supplementary Table 2) were designed to generate an approximately 150 bp fragment flanking an intron-exon border of the corresponding gene. The LightCycler 480 96-well version (ROCHE, Rotkreuz, Switzerland) or the ViiA 7 Real-Time FOR System (Life Technologies, Carlsbad, US-CA) was used for reaction and detection according the instructions of the manufacturer.
as §3

NLRP3 inflammasome [4] = assay: UVB irradiation-induced inflammasome activation in HPKs (IL-1β ELISA, Western blot); format: cell-based, human; conditions: FIG. 2A, 8A-C; for inflammasome activation (processed caspase-1, mature IL-1β and -18 in the supernatant): different doses, UVB 30 min later, harvested after 5 h
Text: (§4) To determine the effects of Nrf2 activating compounds on inflammasome activation, the inventors treated keratinocytes with different doses of SFN, tBHQ, DMF or 15d-PGJ2 and irradiated the cells with UVB.
(§5) SFN, DMF, 15d-PGJ2, tBHQ, zymosan, ATP, poly(dA:dT), cycloheximide, puromycin, and doxycycline were purchased from Sigma (Munich, Germany), nigericin from Enzo Life Sciences (New York, US-NY), MG132 from Calbiochem (Darmstadt, Germany), and blasticidin from Invivogen (Toulouse, France). Release of IL-1p was determined by ELISA according the instructions of the manufacturer (R&D Systems, Minneapolis, US-MN). MSU crystals were prepared by crystallisation of a supersaturated solution of uric acid under mildly basic conditions. Briefly, uric acid was added to a solution of NaOH, the solution was boiled until the uric acid was dissolved and passed through a filter. NaCl was added and crystallisation was performed at 4° C. Crystals were filtered, then dried using a speedvac, weighted and autoclaved.
(§6) (A) HPKs were treated with the indicated concentrations of the Nrf2 activating compound tBHQ irradiated with UVB 30 min later and harvested after 5 h. ELISA measurements were performed for quantification of IL-1β secretion and Western blots for analysis of expression and activation of the indicated proteins. Specific bands are marked with an asterisk. (B) THP-1 cells were differentiated with PMA (27 nM) for 3 d, primed with upLPS (100 ng/ml) overnight, and 1 h before inflammasome activation (5 μM nigericin, 150 μg/ml MSU) treated with SFN (10 μM), 15-PGJ2 (10 μM) or DMF (50 μM) (15-PG: 15-PGJ2). Cells and supernatants were harvested after 5 h and analysed for inflammasome activation by ELISA measurement of IL-1p and Western blots as indicated. (C) Freshly isolated PBMCs from human blood were primed overnight with upLPS (100 ng/ml) and treated with SFN (10 μM), tBHQ (10 μM), DMF (50 μM) or 15-PGJ2 (10 μM) 1 h before inflammasome activation by nigericin (5 μM). ELISA measurement for secretion of IL-1β as readout for inflammasome activation was performed after 5 h. (D) HPKs or (E) differentiated and primed THP-1 cells were pretreated with cycloheximide (CHX, 30 μg/ml) to block protein synthesis for 1 h before SFN (10 μM) was added to the cells and after an additional hour the inflammasome was activated by (D) irradiation with UVB or (E) treatment with nigericin (5 μM). Cells and supernatants were harvested after (D) 6 h or (E) 3.5 h and analysed for inflammasome activation by Western blot as indicated. (A-E) Representative experiments performed at least three times are shown. Statistics: (A-C) Error bars represent the mean±SD of a representative experiment performed in triplicates. One-way ANOVA was performed. **P≤0.01; ***P≤0.001.
FIG. 8: (A-C) HPKs were treated with the Nrf2 activating compounds (A) SFN, (B) DMF, and (C) 15d-PGJ2, irradiated with UVB 30 min later and harvested after 5 h. Analogous experiment as described in FIG. 2A for tBHQ. (D) THP-1 cells were differentiated with TPA for 3 d and primed with LPS overnight. Then, cells were treated with the solvent DMSO, SFN (10 μM) or 15-PGJ2 (10 μM). After 30 min the inflammasome was activated by nigericin treatment and cells and supernatants were harvested after 2.5 h. Western blots showing prolL-1β and mature IL-1p in the lysate and supernatant. 20% lysate and supernatant of a 12 well was used, respectively, in order to allow a comparison. IL-1β was quantified in the supernatant by ELISA and cytotoxicity by LDH release.

NLRP3 inflammasome [5] = target: T1, NLRP3 inflammasome (Homo sapiens, UniProt Q96P20); assay: Inflammasome activation by nigericin/MSU in differentiated, primed THP-1 cells (IL-1β ELISA, Western blot); format: cell-based; conditions: THP-1, 50 μM 1 h before 5 μM nigericin or 150 μg/ml MSU, 5 h, FIG. 2B
T1 construct: endogenous in cells
T1 sequence (Q96P20 whole entry): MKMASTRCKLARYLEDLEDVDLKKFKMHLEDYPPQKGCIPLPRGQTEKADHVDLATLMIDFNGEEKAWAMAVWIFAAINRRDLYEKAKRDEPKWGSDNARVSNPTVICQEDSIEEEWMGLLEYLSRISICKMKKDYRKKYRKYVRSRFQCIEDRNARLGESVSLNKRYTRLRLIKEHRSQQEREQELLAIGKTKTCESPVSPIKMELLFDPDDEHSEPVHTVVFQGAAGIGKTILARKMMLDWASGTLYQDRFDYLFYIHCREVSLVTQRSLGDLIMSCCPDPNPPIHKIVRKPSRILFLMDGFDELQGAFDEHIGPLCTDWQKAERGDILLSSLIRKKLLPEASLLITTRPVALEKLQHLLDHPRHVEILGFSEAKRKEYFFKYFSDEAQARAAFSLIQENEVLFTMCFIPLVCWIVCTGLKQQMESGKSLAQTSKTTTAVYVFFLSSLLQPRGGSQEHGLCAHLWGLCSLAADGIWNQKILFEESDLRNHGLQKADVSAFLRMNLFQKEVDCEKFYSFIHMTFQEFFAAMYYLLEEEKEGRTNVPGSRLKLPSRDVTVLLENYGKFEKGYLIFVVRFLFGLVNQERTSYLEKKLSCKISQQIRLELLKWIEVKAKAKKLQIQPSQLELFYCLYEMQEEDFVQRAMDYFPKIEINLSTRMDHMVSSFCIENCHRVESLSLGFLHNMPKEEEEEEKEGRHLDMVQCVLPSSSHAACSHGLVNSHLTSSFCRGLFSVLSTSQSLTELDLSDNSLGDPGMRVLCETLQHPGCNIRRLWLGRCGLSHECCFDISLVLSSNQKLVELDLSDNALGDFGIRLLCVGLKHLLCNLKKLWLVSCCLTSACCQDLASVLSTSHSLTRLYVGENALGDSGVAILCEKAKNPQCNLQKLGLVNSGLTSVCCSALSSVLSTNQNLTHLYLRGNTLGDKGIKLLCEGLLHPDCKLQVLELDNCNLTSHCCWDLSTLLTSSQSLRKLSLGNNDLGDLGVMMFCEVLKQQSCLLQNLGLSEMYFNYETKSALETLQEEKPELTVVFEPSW
Text: as §4, §5, §6
(A-C) HPKs were irradiated with (A) UVB or treated with (B) nigericin (5 μM) and cells and supernatants were harvested at different time points as indicated. Western blots for expression and activation of the indicated proteins. Specific bands are marked with an asterisk. (C) Expression of Nrf2 and Nrf2 target genes was determined by qRT-PCR. (D, E) THP-1 cells were differentiated with PMA (27 nM) for 3 d, primed with upLPS (100 ng/ml) overnight and treated with nigericin (5 μM) or MSU (150 μg/ml). Cells and supernatants were harvested at different time points as indicated and analysed for (D) expression and activation of the proteins as indicated by Western blot and (E) expression of Nrf2 and Nrf2 target genes by qRT-PCR. (F) HPKs were transfected with specific siRNAs as indicated (scr: scrambled, c1: caspase-1, K1; Keap1), 2 d later irradiated with UVB or treated with nigericin (5 μM). Cells were harvested after 1 h or 5 h, and lysates were analysed for the expression of the indicated proteins by Western blot.

NLRP3 inflammasome [6] = target: T1, NLRP3 inflammasome; assay: Nigericin-induced IL-1β secretion in human PBMCs (ELISA); format: cell-based; conditions: 5 h, FIG. 2C
Text: as §4, §5, §6

[7] = tested on: Monosodium urate (MSU) crystal-induced peritonitis; assay: MSU crystal-induced peritonitis mouse model (neutrophils in peritoneal lavage); format: in vivo; conditions: mice, oral gavage 20 mg/kg for six days, 6 h post 2 mg MSU crystals, vs control mice, n=7, FIG. 3E
Protocol: (§7) Monosodium urate (MSU) crystal-induced peritonitis is a mouse model of inflammation and gout, which is dependent on IL-1, IL-1R1, MyD88 and the NLRP3 inflammasome. […] The inventors chose a different way of administration and supplied mice with SFN or DMF by oral gavage to determine a potential anti-inflammatory activity of the Nrf2 activators in vivo (FIG. 3). […] The inventors analysed the cellular infiltrate in the peritoneum 6 h post injection of MSU crystals.
Mice were challenged with 2 mg of MSU crystals for 6 hours as previously described (Chen et a Olin Invest 2006. 116: 2262-2271).
Mice treated by gavage with (A, B, C) SFN (25 mg/kg) in PBS or (D, E, F) DMF (20 mg/kg) in H2O containing 0.08% methocel and 10% DMSO, vehicle-treated mice served as control. Regime for (A) SFN or (D) DMF treatment. Peritonitis was induced by peritoneal injection of 2 mg MSU crystals, (B, E) After 6 h the number of neutrophils of the peritoneal lavage was determined by flow cytornetry. […] Statistics: Student's t-test. (B, C) n≥3, (E, F) n=7. *P≤0.05; **P≤0.01

[8] = tested on: Nrf2 target genes Gstp1, Nqo1 and Srxn1; assay: Nrf2 target gene expression in liver of treated mice (qRT-PCR); format: in vivo, mouse; conditions: oral gavage 20 mg/kg, FIG. 3F
Protocol: as §7
qRT-PCR was performed with the LightCycler 480 SYBR Green Master or the FastStart Universal SYBR Green Master (both Roche, Rotkreuz, Switzerland) using total cellular RNA. Specific primer pairs (Supplementary Table 2) were designed to generate an approximately 150 bp fragment flanking an intron-exon border of the corresponding gene. […]
Mice treated by gavage with (A, B, C) SFN (25 mg/kg) in PBS or (D, E, F) DMF (20 mg/kg) in H2O containing 0.08% methocel and 10% DMSO, vehicle-treated mice served as control. […] Peritonitis was induced by peritoneal injection of 2 mg MSU crystals, (B, E) After 6 h the number of neutrophils of the peritoneal lavage was determined by flow cytornetry. (C, F) At the same time, the liver was isolated and analysed for the expression of the Nrf2 target genes Gstp1, Nqo1 and Srxn1 by qRT-PCR. […]

THP-1 cells = assay: Block of protein synthesis in THP-1 cells (Western blot); format: cell-based, human; conditions: THP-1, 30 μg/ml for 1 h before priming with upLPS overnight, FIG. 7E
Protocol: To determine the effects of Nrf2 activating compounds on inflammasome activation, the inventors treated keratinocytes with different doses of SFN, tBHQ, DMF or 15d-PGJ2 and irradiated the cells with UVB. […] As the Nrf2 activators were added to the cells only 15 to 30 min prior to inflammasome activation, it is unlikely that Nrf2 target genes are involved in inflammasome inhibition.
as §1

CC(=O)OCOC(=O)CN(CC(=O)OCOC(C)=O)c1ccccc1OCCOc1ccccc1N(CC(=O)OCOC(C)=O)CC(=O)OCOC(C)=O [BAPTA-AM]
inflammasome activation-induced Nrf2 degradation (Nrf2 [1]; 12.5 μM for 10 min): blocked

COC(=O)/C=C/C(=O)OC [DMF, dimethyl fumarate]
expression of the other Nrf2 complex proteins Keap1, Cul3, and Rbx1 (Nrf2 [2]; 50 μM): not affected
stabilisation and nuclear accumulation of Nrf2 protein (Nrf2 [2]; 50 μM): fast and robust stabilisation and nuclear accumulation of Nrf2 protein
expression of classical Nrf2 target genes ([3]; 50 μM): induction of classical Nrf2 target genes
relative efficiency/potency of inflammasome inhibition between compounds (NLRP3 inflammasome [4]; UVB, same concentrations): less potent in inflammasome inhibition than SFN
inflammasome activation (processed caspase-1, mature IL-1β and -18 in the supernatant) (NLRP3 inflammasome [4]): inhibited inflammasome activation in a dose-dependent manner
IL-1β secretion (NLRP3 inflammasome [5]): inhibited IL-1β secretion
IL-1β secretion (NLRP3 inflammasome [6]; 50 μM 1 h before nigericin (5 μM)): inhibited IL-1β secretion
number of neutrophils in the peritoneum [7]: significantly reduced
expression of Nrf2 target genes in the liver [8]: increased mRNA expression

C[C@@H]1C[C@@H]([C@H](O)CC2CC(=O)NC(=O)C2)C(=O)[C@@H](C)C1 [cycloheximide]
protein synthesis (THP-1 cells): blocks protein synthesis

CC(C)(C)c1cc(O)ccc1O [tBHQ, tert-butylhydroquinone]
expression of the other Nrf2 complex proteins Keap1, Cul3, and Rbx1 (Nrf2 [2]; 10 μM): not affected
stabilisation and nuclear accumulation of Nrf2 protein (Nrf2 [2]; 10 μM): fast and robust stabilisation and nuclear accumulation of Nrf2 protein
expression of classical Nrf2 target genes ([3]; 10 μM): induction of classical Nrf2 target genes
inflammasome activation (processed caspase-1, mature IL-1β and -18 in the supernatant) (NLRP3 inflammasome [4]): inhibited inflammasome activation in a dose-dependent manner
IL-1β secretion (NLRP3 inflammasome [6]; 10 μM 1 h before nigericin (5 μM)): inhibited IL-1β secretion

N.S=C(S)N1CCCC1 [PDTC]
inflammasome activation-induced Nrf2 degradation (Nrf2 [1]; 500 μM for 10 min): blocked

From patent publication US20190029987A1, “DIMETHYL FUMARATE (DMF) FOR PREVENTION OR TREATMENT OF GOUT, ACNE, DIABETES, VITILIGO AND/OR PYODERMA GANGRENOSUM” (UNIVERSITAT ZURICH, priority 2016, published 2019)
